In ChEMBL document CHEMBL4325888, “Medicinal chemistry of vicinal diaryl scaffold: A mini review” (Eur J Med Chem, 2019):
Blank lines part the entries; values can stand above or below the compound they belong to.

Experiments:
[1] = target: T1, Prostaglandin G/H synthase 2 (Ovis aries, UniProt P79208)
T1 sequence (P79208 whole entry): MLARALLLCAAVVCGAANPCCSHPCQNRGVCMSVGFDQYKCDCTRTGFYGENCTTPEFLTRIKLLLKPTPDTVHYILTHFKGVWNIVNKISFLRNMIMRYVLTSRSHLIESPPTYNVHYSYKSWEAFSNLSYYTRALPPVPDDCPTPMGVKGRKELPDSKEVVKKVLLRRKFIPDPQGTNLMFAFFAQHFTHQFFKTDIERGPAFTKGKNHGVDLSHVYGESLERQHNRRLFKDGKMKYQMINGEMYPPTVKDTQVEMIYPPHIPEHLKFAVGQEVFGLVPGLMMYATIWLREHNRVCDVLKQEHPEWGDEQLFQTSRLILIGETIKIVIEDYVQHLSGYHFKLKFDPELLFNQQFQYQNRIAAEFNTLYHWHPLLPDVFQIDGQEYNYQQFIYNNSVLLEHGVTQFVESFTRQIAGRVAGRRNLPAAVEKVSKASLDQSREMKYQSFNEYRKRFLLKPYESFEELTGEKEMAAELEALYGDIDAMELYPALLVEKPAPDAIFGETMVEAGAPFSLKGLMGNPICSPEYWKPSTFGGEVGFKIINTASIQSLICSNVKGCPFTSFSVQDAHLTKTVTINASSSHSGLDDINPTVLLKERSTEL

[2] = tested on: MCF7; test: cells; format: functional, cell-based; conditions: Homo sapiens
[3] = target: Tubulin; format: protein-complex assay, Homo sapiens
[4] = target: T1, Prostaglandin G/H synthase 2; remark: listed apart in the source
[5] = species: Rattus norvegicus; test: animal or person; format: functional
[6] = tested on: MCF7; test: cells; format: functional, cell-based; conditions: Homo sapiens, MCF7, 48 h
[7] = target: T2, Prostaglandin G/H synthase 1 (Mus musculus, UniProt P22437)
T2 sequence (P22437 whole entry): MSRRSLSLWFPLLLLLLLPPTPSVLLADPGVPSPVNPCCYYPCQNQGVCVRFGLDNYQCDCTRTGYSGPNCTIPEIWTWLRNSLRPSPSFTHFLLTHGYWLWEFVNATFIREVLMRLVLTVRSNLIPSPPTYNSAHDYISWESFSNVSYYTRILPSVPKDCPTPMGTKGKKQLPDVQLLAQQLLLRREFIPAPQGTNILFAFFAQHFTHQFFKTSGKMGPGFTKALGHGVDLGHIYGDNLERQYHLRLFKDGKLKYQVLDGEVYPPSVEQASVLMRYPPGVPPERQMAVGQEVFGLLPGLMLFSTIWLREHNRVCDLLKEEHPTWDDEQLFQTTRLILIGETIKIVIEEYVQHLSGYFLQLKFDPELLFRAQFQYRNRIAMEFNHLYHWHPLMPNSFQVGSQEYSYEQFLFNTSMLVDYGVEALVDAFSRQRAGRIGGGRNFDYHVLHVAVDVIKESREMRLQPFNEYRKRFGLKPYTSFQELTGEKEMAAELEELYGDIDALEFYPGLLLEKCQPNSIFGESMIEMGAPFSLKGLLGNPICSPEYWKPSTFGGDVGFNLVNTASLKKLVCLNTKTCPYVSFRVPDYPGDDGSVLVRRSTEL

SMILES: COc1ccc(-c2coc(=O)n2-c2cc(OC)c(OC)c(OC)c2)cc1N
IC50 [2]: 1.8 µM

SMILES: COc1ccc([C@H]2OCO[C@@H]2c2cc(OC)c(OC)c(OC)c2)cc1O
IC50 [3]: > 50 µM

SMILES: COc1ccc(-c2oc(O)nc2-c2cc(OC)c(OC)c(OC)c2)cc1N
IC50 [2]: 4.9 µM

SMILES: CS(=O)(=O)c1ccc(-c2snnc2-c2ccc(F)cc2)cc1
ED50 [5]: 0.7 mg/kg

SMILES: COC(=O)c1ccc(-n2nc(C(F)(F)F)cc2-c2cc(OC)c(OC)c(OC)c2)cc1
IC50 [6]: 1.3 µM

SMILES: COc1ccc([C@@H]2OCO[C@H]2c2cc(OC)c(OC)c(OC)c2)cc1O
IC50 [3]: 4 to 6 µM

Continued, values first:

IC50 [1]: 0.196 µM
SMILES: [N-]=[N+]=Nc1ccc(C2=C(c3ccccc3)C(=O)OC2)cc1

IC50 [1]: 1.55 µM
SMILES: Cc1ccc(-c2cc(C(F)(F)F)nn2-c2ccc(N=[N+]=[N-])cc2)cc1

IC50 [4]: 0.0316 µM
SMILES: CC1C(c2ccc(F)cc2)=C(c2ccc(S(C)(=O)=O)cc2)ON1C (stereo not given)

IC50 [7]: 0.003 µM
SMILES: CC1(C)OC(c2ccc(S(N)(=O)=O)cc2)=C(c2cccc(F)c2)C1=O [POLMACOXIB]
